Measured values: PMC11869128, “Bayesian Optimization over Multiple Experimental Fidelities Accelerates Automated Discovery of Drug Molecules” (ACS Central Science, 2025)
Read-outs that look alike come from different tables or passages of the source. Values belong to the molecule of their own block, whether it stands above or below them.

Assays:
[1] = test system: HDAC; conditions: cited from earlier work
[2] = test system: HDAC; assay: HDAC fluorometric assay, dose-response curve (high fidelity); conditions: read-out: IC50 (Dose-Response Curve), manually synthesized molecules
Description: HDAC inhibition is automatically measured in a plate reader with a fluorometric assay (Abcam ab283378). In the plate-based assay, the liquid handler first dispenses individual purified products in dimethyl sulfoxide into each well, then adds buffer containing HDAC and a peptide substrate containing an acetylated lysine residue. The solution is agitated and incubated for 30 min at 37 °C, then a developer, which reacts with primary amines to form a fluorescent product, is dispensed and incubated for another 30 min. After the second incubation, the plate is transferred to the plate reader to measure fluorescence corresponding to uninhibited HDAC activity. The platform handles all aspects of the assay; dispensing reagents, timing incubation, transferring plates, preparing positive and negative controls, and analyzing fluorescent readouts without human input.

[3] = test system: HDAC; assay: HDAC fluorometric assay, single-point percent inhibition (medium fidelity); assay type: biochemical; conditions: for IC50: first iteration, assuming binding follows the Hill equation and is noncooperative, assay run at 20 μM scale, read-out: IC50 corresponding to single point inhibition
From the text: In the first iteration, the experimental design algorithm recommended that 3,385 candidates be docked (39% of budget), 261 candidates screened for single-point percent inhibition (61% of budget), and no candidates be manually synthesized for full dose–response characterization (0% of budget). The total budget was 100.0 with the same experiment cost structure of 0.01 for docking, 0.2 for single-point, and 1.0 for dose response curve. Docking was automatically performed with DiffDock, and the resulting conformers scored based on their binding to the catalytic zinc ion and overlap with bound known inhibitors from X-ray crystallography. For the candidates selected for automatic synthesis, the reactions were batched by temperature into well plates to be run in parallel on the automated platform. With a maximum allowance of 6 well plates, the platform attempted to synthesize 79 candidates, with an average of 2.4 reaction steps required for each candidate. Based on observation of the expected mass-to-charge ratio (m/z) during automatic HPLC-MS analysis, 40 of the syntheses were successful. The successful syntheses were automatically purified with semipreparative HPLC, the concentration of the inhibitor was automatically estimated,[47] and the fluorometric inhibition assay was automatically run at 20 μM scale. The structures, synthesis plans, assay scores, and statistics for the attempted molecules are in the SI.

Compound: CCCC(CCC)C(=O)O [valproate]
IC50 ([1]; FDA approved nonhydroxamate inhibitor): 180 µM

IC50 [2]: 0.0018 µM
Compound: CC(/C=C/C(=O)NO)=C\[C@@H](C)C(=O)c1ccc(N(C)C)cc1 [trichostatin A]

IC50 [3]: 7.25 µM
Compound: O=[N+]([O-])c1ccc(N(S(=O)(=O)c2cccc3cccnc23)S(=O)(=O)C(F)(F)F)cc1 [c]

Compound: O=C1CCc2cc(Nn3cnnc3)ccc21 [5-((1,2,4-triazol-4-yl)amino)-indan-1-one]
inhibition in the single-point assay ([3]; second iteration, automated synthesis and assay): 11%

Compound: CCN(CC)Cc1ccc2cc(COC(=O)Nc3ccc(C(=O)NO)cc3)ccc2c1 [givinostat]
IC50 ([1]; FDA approved hydroxamate): 0.837 µM

IC50 [3]: 3.31 µM
Compound: Cc1ccc(S(=O)(=O)N(c2ccc([N+](=O)[O-])cc2)C2CCC2)cc1 [b]

IC50 [3]: 1.14 µM
Compound: CC(C)(C)N(S(C)(=O)=O)S(=O)(=O)c1cccc(Br)c1 [a]
